Results taken from article PMC5589878, “Development of Fluorescent Probes that Target Serotonin 5-HT2B Receptors” (Scientific Reports, 2017).
Read-outs that look alike come from different tables or passages of the source.

Tests used:
[1] = target: T1, human 5-HT2C receptors (Homo sapiens, UniProt P28335); test: Radioligand competition binding assay at human 5-HT2C receptors
T1 construct: expressed in transfected cells; host or cells: HeLa-5-HT2C cells (membranes)
T1 sequence (P28335 33-458): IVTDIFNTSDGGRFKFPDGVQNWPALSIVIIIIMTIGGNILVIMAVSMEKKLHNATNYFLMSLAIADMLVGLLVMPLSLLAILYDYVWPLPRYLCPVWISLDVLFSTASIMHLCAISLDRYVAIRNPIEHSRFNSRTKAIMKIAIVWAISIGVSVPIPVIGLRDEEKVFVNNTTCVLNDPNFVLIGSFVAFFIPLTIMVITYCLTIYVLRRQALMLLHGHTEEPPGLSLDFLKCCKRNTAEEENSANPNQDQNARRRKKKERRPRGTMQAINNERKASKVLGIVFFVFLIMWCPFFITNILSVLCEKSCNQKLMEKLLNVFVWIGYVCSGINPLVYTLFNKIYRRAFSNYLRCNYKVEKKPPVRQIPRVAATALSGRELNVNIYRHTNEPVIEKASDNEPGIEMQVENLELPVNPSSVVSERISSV

[2] = target: 5-HT2A receptors (Homo sapiens, UniProt P28223); test: Radioligand competition binding assay at human 5-HT2A receptors; design: expressed in transfected cells; host or cells: CHO-FA4-5-HT2A cells (membranes)
Sequence of 5-HT2A receptors (P28223 whole entry): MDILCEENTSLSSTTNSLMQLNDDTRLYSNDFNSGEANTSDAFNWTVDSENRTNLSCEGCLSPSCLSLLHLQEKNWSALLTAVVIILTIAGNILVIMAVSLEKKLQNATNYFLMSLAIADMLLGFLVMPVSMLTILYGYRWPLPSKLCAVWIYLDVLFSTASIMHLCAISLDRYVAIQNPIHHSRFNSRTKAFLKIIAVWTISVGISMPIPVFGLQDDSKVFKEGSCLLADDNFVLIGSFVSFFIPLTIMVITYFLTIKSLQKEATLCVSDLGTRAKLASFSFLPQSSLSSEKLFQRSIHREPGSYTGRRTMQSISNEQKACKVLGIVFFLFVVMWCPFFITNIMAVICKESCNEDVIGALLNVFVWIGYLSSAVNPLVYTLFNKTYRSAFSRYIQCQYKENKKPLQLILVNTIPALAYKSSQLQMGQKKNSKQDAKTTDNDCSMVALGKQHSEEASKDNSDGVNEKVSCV

[3] = target: T2, 5-HT2B receptors (Homo sapiens, UniProt P41595); test: Radioligand competition binding assay at human 5-HT2B receptors
T2 sequence (P41595 whole entry): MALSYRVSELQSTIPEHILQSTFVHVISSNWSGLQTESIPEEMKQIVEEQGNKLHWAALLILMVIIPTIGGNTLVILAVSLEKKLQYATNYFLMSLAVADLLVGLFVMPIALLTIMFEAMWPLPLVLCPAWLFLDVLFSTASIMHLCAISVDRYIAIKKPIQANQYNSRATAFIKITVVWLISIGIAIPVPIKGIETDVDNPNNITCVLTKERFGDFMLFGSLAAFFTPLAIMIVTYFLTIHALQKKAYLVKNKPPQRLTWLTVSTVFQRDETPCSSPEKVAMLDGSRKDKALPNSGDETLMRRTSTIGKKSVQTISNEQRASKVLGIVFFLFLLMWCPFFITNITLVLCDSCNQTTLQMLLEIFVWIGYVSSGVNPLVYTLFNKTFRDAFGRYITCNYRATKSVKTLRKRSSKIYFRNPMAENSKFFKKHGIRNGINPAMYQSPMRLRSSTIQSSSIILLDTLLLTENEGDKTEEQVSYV

[4] = target: T2, 5-HT2B receptors; test: Functional assay of IPs accumulation at human 5-HT2B receptors; format: cell-based
Experimental: After 24 h, growth medium was replaced by serum-free medium containing 10 μCi/mL [^3H]myo-inositol (20.3 Ci/mmol, Perkin-Elmer) for 24 h. […] After the incubation time, assay buffer was discarded and 200 μL of 100 mM formic acid was added to the cells for 30 min at 4 °C and 20 μL of the lysate were transferred to a flexiplate plate (Perkin-Elmer, Waltham, MA, USA) together with 80 μL of a solution of RNA Binding YSi SPA Beads (Perkin-Elmer, Waltham, MA, USA) to measure accumulation of [^3H]IPs (IP1,IP2, and IP3, collectively referred to as IPs).

[5] = Absorption and emission spectra (photophysical properties); format: physicochemical; conditions: 10 μM solutions
Experimental: The absorption and emission spectra of the fluorescent 5-HT2 ligands (10 and 12) were determined on 10 μM solutions. The most relevant fluorescent properties are collected in Fig. 5. All of the synthesized derivatives emitted fluorescence in the visible region of the spectrum, with selected fluorescent tags (Fig. 4) providing distinctive properties and excitation wavelengths. The excitation wavelengths varied from 305 to 555 nm, whereas those for emission varied from 398 to 580 nm.

[6] = [3H]Mesulergine, membranes from HeLa-5-HT2C cells
[7] = [3H]Ketanserin, membranes from CHO-FA4-5-HT2A cells, read-out: Binding at 5-HT2 receptors Ki 5-HT2A
[8] = [3H]Mesulergine, membranes from HeLa-5-HT2C cells, read-out: Binding at 5-HT2 receptors Ki 5-HT2C

Molecule	Binding at 5-HT2 receptors % at 1 μM 5-HT2C [1, 6] [%]	Ki [2, 7] [µM]	Ki [3] [nM]	EC50 [4] [nM]	Δλ (Stokes shift) [5] [nm]	εmax [5] [M⁻¹ cm⁻¹]	λmax Abs [5] [nm]	λmax Em [5] [nm]	Ki [1] [nM]	Ki [2] [µM]	melting point [°C]	Binding at 5-HT2 receptors % at 1 μM 5-HT2A ([2]; at 1 μM, [3H]Ketanserin, membranes from CHO-FA4-5-HT2A cells) [%]	selectivity for the 5-HT2B receptor subtype ([3]; over 5-HT2A and 5-HT2C, from binding Ki) [fold]	Ki [1, 8] [nM]
3-(2-(2-(2-(2-aminopropyl)-5-iodo-4-methoxyphenoxy)ethoxy)ethoxy)-N-(3-((5-(dimethylamino)naphthalene)-1-sulfonamido)propyl)propanamide [10d]	3	13												
COc1cc(CC(C)N)c(OCCCC(=O)NCCCNS(=O)(=O)c2cccc3c(N(C)C)cccc23)cc1I (stereo not shown) [10a, 4-(2-(2-aminopropyl)-5-iodo-4-methoxyphenoxy)-N-(3-((5-(dimethyl-amino)naphthalene)-1-sulfonamido)propyl)butanamide]			112	89.1	147	2726	350	497	273	1.71				
COc1cc(CC(C)N)c(OCCCCCCC(=O)NCCCNS(=O)(=O)c2cccc3c(N(C)C)cccc23)cc1I (stereo not shown) [10b, 7-(2-(2-aminopropyl)-5-iodo-4-methoxyphenoxy)-N-(3-((5-(dimethylami-no)naphthalene)-1-sulfonamido)propyl)heptanamide]			167	245					295	41.2				
COc1cc(CC(C)N)c(OCCCCCCCCCCC(=O)NCCCNS(=O)(=O)c2cccc3c(N(C)C)cccc23)cc1I (stereo not shown) [10c, 11-(2-(2-aminopropyl)-5-iodo-4-methoxyphenoxy)-N-(3-((5-(dimethyl-amino)naphthalene)-1-sulfonamido)propyl)undecanamide]	1		806								171 to 173	2		
COc1cc(CC(C)N)c(OCCCC(=O)NCCCNc2ccc([N+](=O)[O-])c3nonc23)cc1I (stereo not shown) [12b, 4-(2-(2-aminopropyl)-5-iodo-4-methoxyphenoxy)-N-(3-((7-nitroben-zo[c][1,2,5]oxadiazol-4-yl)amino)propyl)butanamide]			91	3.27	69	23881	461	530	1810	3.31	158 to 160		≥ 20	
COc1cc(CC(C)N)c(OCCCC(=O)NCCCN2C(=O)c3c(c4ccccc4c4ccccc34)C2=O)cc1I (stereo not shown) [12c, 4-(2-(2-aminopropyl)-5-iodo-4-methoxyphenoxy)-N-(3-(1,3-dioxo-1,3-dihydro-2H-dibenzo[e,g]isoindol-2-yl)propyl)butanamide]			86.9	24.9	76	2758	390	466	616	5.18				
COC(=O)c1c(C(=O)OCCCNC(=O)CCCOc2cc(I)c(OC)cc2CC(C)N)c2ccccc2c2ccccc12 (stereo not shown) [12d, 9-(3-(4-(2-(2-aminopropyl)-5-iodo-4-methoxyphenoxy)butanamido)pro-pyl)-10-methyl phenanthrene-9,10-dicarboxylate]			140	25.6	98	6813	305	403	1100	3.98				
COC(=O)c1c(C(=O)OCCCNC(=O)CCCOc2cc(I)c(OC)cc2CC(C)N)c2cc(F)c(F)cc2c2cc(F)c(F)cc12 (stereo not shown) [12e, 9-(3-(4-(2-(2-aminopropyl)-5-iodo-4-methoxyphenoxy)butanamido)pro-pyl) 10-methyl 2,3,6,7-tetrafluorophenanthrene-9,10-dicarboxylate]			148	9.45	83	18295	315	398	2280	2.57				
COC(=O)c1c(C(=O)OCCCNC(=O)CCCOc2cc(I)c(OC)cc2CC(C)N)c2cc3c(cc2c2cc4c(cc12)CCC4)CCC3 (stereo not shown) [12f, 5-(3-(4-(2-(2-aminopropyl)-5-iodo-4-methoxyphenoxy)butanamido)pro-pyl)-6-methyl-1,2,3,8,9,10-hexahydrodicyclopenta[b,h]phenanthrene-5,6-dicarbo-xylate]			136	47	119	12078	309	428	1030	2.32				
COC(=O)c1c(C(=O)OCCCNC(=O)CCCOc2cc(I)c(OC)cc2CC(C)N)c2cc3ccccc3cc2c2cc3ccccc3cc12 (stereo not shown) [12g, 6-(3-(4-(2-(2-aminopropyl)-5-iodo-4-methoxyphenoxy)butanamido)pro-pyl) 7-methyl pentaphene-6,7-dicarboxylate]		3.7	283		123	9977	375	498			150 to 152			2280
CCCCCCC(CCCCCC)N1C(=O)c2ccc3c4ccc5c6c(ccc(c7ccc(c2c37)C1=O)c64)C(=O)N(CCCNC(=O)CCCOc1cc(I)c(OC)cc1CC(C)N)C5=O (stereo not shown) [12h, 4-(2-(2-aminopropyl)-5-iodo-4-methoxyphenoxy)-N-(3-(1,3,8,10-tetraoxo-9-(tridecan-7-yl)-3,8,9,10-tetrahydroanthra[2,1,9-def:6,5,10-d′e′f′]diisoquinolin-2(1H)-yl)propyl)butanamide]		15	1410		70	27500	460	530			169 to 171			7990
